{"source": "patent US20230310388A1", "about": "“Methods and Compositions for Treating Fungal Infections” (Neoculi Pty Ltd, priority 2020, published 2023)", "key": {"C. gattii": {"tested_on": "C. gattii", "test": "CLSI broth microdilution MIC (Example 6)", "assay_type": "cell-based, Cryptococcus gattii", "description": "(§1) Antifungal minimum inhibitory concentration (MIC) testing was undertaken as recommended by the CLSI (1). Briefly, antifungal susceptibility tests were performed for amphotericin B, robenidine (NCL812) and 10 robenidine analogs (NCL023, NCL024, NCL097, NCL113, NCL115, NCL195, NCL219, NCL220, NCL259, NCL265) by standard broth microdilution method (CLSI) in RPMI 1640. Various concentrations (ranging from high to low) of the selected compounds were prepared in RPMI 1640 medium by double dilution in 96-well microtitre plates. Each well contained an inoculum of approximately 2×10^3 cells/mL. The wells without addition of drugs served as negative (no inoculum) and positive (inoculum only) growth controls. Microtitre plates were incubated at 35° C. for 24-48 hours. […] Antifungal MICs were determined for each isolate in duplicate; if the values obtained were different, the MIC test was repeated a third time."}, "Candida albicans [1]": {"tested_on": "Candida albicans", "test": "CLSI broth microdilution MIC (Example 6)", "assay_type": "cell-based", "description": "as §1"}, "Cryptococcus neoformans [2]": {"tested_on": "Cryptococcus neoformans", "test": "CLSI broth microdilution MIC (Example 6)", "assay_type": "cell-based", "description": "as §1"}, "Candida albicans [3]": {"tested_on": "Candida albicans", "test": "CLSI broth microdilution MIC (Example 5)", "assay_type": "cell-based", "description": "as §1, with “CLSI.” for “CLSI (1).”, “and” for “and 10”, “(NCL23, NCL24, NCL97,” for “(NCL023, NCL024, NCL097,”"}, "Cryptococcus neoformans [4]": {"tested_on": "Cryptococcus neoformans", "test": "CLSI broth microdilution MIC (Example 5)", "assay_type": "cell-based", "description": "as §1, with “CLSI.” for “CLSI (1).”, “and” for “and 10”, “(NCL23, NCL24, NCL97,” for “(NCL023, NCL024, NCL097,”"}, "Candida albicans [5]": {"tested_on": "Candida albicans", "test": "CLSI broth microdilution MIC (Example 3)", "assay_type": "cell-based", "description": "as §1, with “the CLSI.” for “the CLSI (1).”, “and 5” for “and 10”, “analogs (NCL062,” for “analogs (NCL023, NCL024, NCL097, NCL113, NCL115,”, “NCL219,” for “NCL219, NCL220,”, “time. Antifungal susceptibility tests were performed for amphotericin B and NCL analogs by standard broth microdilution method (CLSI). Briefly, various concentrations (ranging from high to low) of the selected compounds were prepared in RPMI 1640 medium by double dilution in the 96-well plates. Each well contained an inoculum of approximately 2×10^3 cells/mL. The wells without addition of drugs served as a negative control. Micro plates were incubated at 35° C. for 48 hour and read spectrophotometrically at 600 nm, using a microplate reader (Multiskan-EX; Thermo Elect. Corp., USA).” for “time.”"}, "Candida parapsilosis": {"tested_on": "Candida parapsilosis", "test": "CLSI broth microdilution MIC (Example 3)", "assay_type": "cell-based", "conditions": "Candida parapsilosis ATCC 22019", "description": "as §1, with “the CLSI.” for “the CLSI (1).”, “and 5” for “and 10”, “analogs (NCL062,” for “analogs (NCL023, NCL024, NCL097, NCL113, NCL115,”, “NCL219,” for “NCL219, NCL220,”, “time. Antifungal susceptibility tests were performed for amphotericin B and NCL analogs by standard broth microdilution method (CLSI). Briefly, various concentrations (ranging from high to low) of the selected compounds were prepared in RPMI 1640 medium by double dilution in the 96-well plates. Each well contained an inoculum of approximately 2×10^3 cells/mL. The wells without addition of drugs served as a negative control. Micro plates were incubated at 35° C. for 48 hour and read spectrophotometrically at 600 nm, using a microplate reader (Multiskan-EX; Thermo Elect. Corp., USA).” for “time.”"}, "Candida albicans [6]": {"tested_on": "Candida albicans", "test": "CLSI broth microdilution MIC (Example 4)", "assay_type": "cell-based", "description": "(§2) Antifungal minimum inhibitory concentration (MIC) testing was undertaken as recommended by the CLSI. Briefly, antifungal susceptibility tests were performed for amphotericin B, robenidine (NCL812) and robenidine (NCL) analogs (NCL004, NCL020, NCL023, NCL024, NCL062, NCL094, NCL097, NCL110, NCL113, NCL114, NCL115, NCL135, NCL139, NCL180, NCL181, NCL195, NCL219, NCL220, NCL228, NCL247, NCL250, NCL259, NCL260, NCL263, NCL265, NCL269, NCL274) by standard broth microdilution method (CLSI) in RPMI 1640. Various concentrations (ranging from high to low) of the selected compounds were prepared in RPMI 1640 medium by double dilution in 96-well microtitre plates. Each well contained an inoculum of approximately 2×10^3 cells/mL. The wells without addition of drugs served as negative (no inoculum) and positive (inoculum only) growth controls. Microtitre plates were incubated at 35° C. for 24-48 hours. […] Antifungal MICs were determined for each isolate in duplicate; if the values obtained were different, the MIC test was repeated a third time."}, "Cryptococcus neoformans [7]": {"tested_on": "Cryptococcus neoformans", "test": "CLSI broth microdilution MIC (Example 4)", "assay_type": "cell-based", "description": "as §2"}, "[8]": {"tested_on": "Candida albicans ATCC14053", "test": "Broth micro-dilution screen at 16 μg/mL and MIC (Example 9)", "assay_type": "cell-based", "conditions": "single concentration 16 μg/mL; Growth or No growth of C. albicans ATCC14053", "description": "The antifungal activity of 201 NCL analogs against Candida albicans ATCC14053 in vitro was investigated. A broth micro-dilution method was used, according to CLSI guidelines as described. NCL analogs were dissolved in DMSO and originally screened at a single concentration of 16 μg/mL."}, "[9]": {"conditions": "Candida albicans ATCC 90028, 1st"}, "[10]": {"conditions": "Candida albicans ATCC 90028, 2nd"}}, "data": [{"molecule": "C[C@@H]1[C@H](O)[C@@H](C)/C=C/C=C/C=C/C=C/C=C/C=C/C=C/[C@H](O[C@@H]2O[C@H](C)[C@@H](O)[C@H](N)[C@@H]2O)C[C@@H]2O[C@](O)(C[C@@H](O)C[C@@H](O)[C@H](O)CC[C@@H](O)C[C@@H](O)CC(=O)O[C@H]1C)C[C@H](O)[C@H]2C(=O)O", "note": "[Amphotericin B, reference compound]", "values": [{"measurement": "MIC", "setting": "C. gattii; human clinical isolate C. gatti 17-90232099", "result": 1, "unit": "µg/mL"}, {"measurement": "MIC", "setting": "C. gattii; human clinical isolate C. gattii 16-90050373", "result": 1, "unit": "µg/mL"}, {"measurement": "MIC", "setting": "C. gattii; human clinical isolate C. gattii 17-90028211", "result": 1, "unit": "µg/mL"}, {"measurement": "MIC", "setting": "C. gattii; human clinical isolate C. gattii 17-90028217", "result": 0.5, "unit": "µg/mL"}, {"measurement": "MIC", "setting": "C. gattii; human clinical isolate C. gattii 17-90028242", "result": 1, "unit": "µg/mL"}, {"measurement": "MIC", "setting": "Candida albicans [1]; C. albicans SA3", "result": 2, "unit": "µg/mL"}, {"measurement": "MIC", "setting": "Candida albicans [1]; Candida albicans ATCC 90028", "result": 0.5, "unit": "µg/mL"}, {"measurement": "MIC", "setting": "Cryptococcus neoformans [2]; Cryptococcus neoformans SA1", "result": 0.3, "unit": "µg/mL"}, {"measurement": "MIC", "setting": "Cryptococcus neoformans [2]; Cryptococcus neoformans SA2", "result": 0.3, "unit": "µg/mL"}, {"measurement": "MIC", "setting": "Cryptococcus neoformans [2]; human clinical isolate C. neoformans serotype A/D hybrid", "result": 0.5, "unit": "µg/mL"}, {"measurement": "MIC", "setting": "Cryptococcus neoformans [2]; human clinical isolate C. neoformans var grubii 16-90050434", "result": 1, "unit": "µg/mL"}, {"measurement": "MIC", "setting": "Cryptococcus neoformans [2]; human clinical isolate C. neoformans var grubii 17-90028233", "result": 2, "unit": "µg/mL"}, {"measurement": "MIC", "setting": "Cryptococcus neoformans [2]; human clinical isolate C. neoformans var grubii 17-93996464", "result": 1, "unit": "µg/mL"}, {"measurement": "MIC", "setting": "Cryptococcus neoformans [2]; human clinical isolate C. neoformans var grubii 17-93996964", "result": 1, "unit": "µg/mL"}, {"measurement": "MIC", "setting": "Candida albicans [3]; C. albicans SA3", "result": 2, "unit": "µg/mL"}, {"measurement": "MIC", "setting": "Candida albicans [3]; Candida albicans ATCC 90028", "result": 0.5, "unit": "µg/mL"}, {"measurement": "MIC", "setting": "Candida albicans [3]; clinical isolate C. albicans 12-93301752 Azole Resistant", "result": 0.5, "unit": "µg/mL"}, {"measurement": "MIC", "setting": "Candida albicans [3]; clinical isolate C. albicans 14-90045999 Azole Resistant", "result": 0.25, "unit": "µg/mL"}, {"measurement": "MIC", "setting": "Candida albicans [3]; clinical isolate C. albicans 15-45171061", "result": 0.125, "unit": "µg/mL"}, {"measurement": "MIC", "setting": "Candida albicans [3]; clinical isolate C. albicans 15-91329871", "result": 0.125, "unit": "µg/mL"}, {"measurement": "MIC", "setting": "Candida albicans [3]; clinical isolate C. albicans 16-24136919 Azole Resistant", "result": 0.5, "unit": "µg/mL"}, {"measurement": "MIC", "setting": "Candida albicans [3]; clinical isolate C. albicans 16-46177400", "result": 0.25, "unit": "µg/mL"}, {"measurement": "MIC", "setting": "Candida albicans [3]; clinical isolate C. albicans 16-90050810", "result": 0.125, "unit": "µg/mL"}, {"measurement": "MIC", "setting": "Candida albicans [3]; clinical isolate C. albicans 16-90054237", "result": 0.125, "unit": "µg/mL"}, {"measurement": "MIC", "setting": "Candida albicans [3]; clinical isolate C. albicans 18-144-00196", "result": 0.25, "unit": "µg/mL"}, {"measurement": "MIC", "setting": "Candida albicans [3]; clinical isolate C. albicans 18-148-08188 Azole Resistant", "result": 0.5, "unit": "µg/mL"}, {"measurement": "MIC", "setting": "Cryptococcus neoformans [4]; Cryptococcus neoformans SA1", "result": 0.25, "unit": "µg/mL"}, {"measurement": "MIC", "setting": "Cryptococcus neoformans [4]; Cryptococcus neoformans SA2", "result": 0.25, "unit": "µg/mL"}, {"measurement": "MIC", "setting": "Candida albicans [5]; [9]", "result": 0.25, "unit": "µg/mL"}, {"measurement": "MIC", "setting": "Candida albicans [5]; [10]", "result": 0.5, "unit": "µg/mL"}, {"measurement": "MIC", "setting": "Candida albicans [5]; Candida albicans, 1st", "result": 0.5, "unit": "µg/mL"}, {"measurement": "MIC", "setting": "Candida albicans [5]; Candida albicans, 2nd", "result": 1, "unit": "µg/mL"}, {"measurement": "MIC", "setting": "Candida parapsilosis; 1st", "result": 0.5, "unit": "µg/mL"}, {"measurement": "MIC", "setting": "Candida parapsilosis; 2nd", "result": 0.5, "unit": "µg/mL"}, {"measurement": "MIC at 24-48 hours", "setting": "Candida albicans [6]; Candida albicans ATCC 90028", "result": 0.5, "unit": "µg/mL"}, {"measurement": "MIC at 24-48 hours", "setting": "Candida albicans [6]; Candida albicans SA3", "result": 2, "unit": "µg/mL"}, {"measurement": "MIC at 24-48 hours", "setting": "Cryptococcus neoformans [7]; Cryptococcus neoformans SA1", "result": 0.3, "unit": "µg/mL"}, {"measurement": "MIC at 24-48 hours", "setting": "Cryptococcus neoformans [7]; Cryptococcus neoformans SA2", "result": 0.3, "unit": "µg/mL"}]}, {"molecule": "C/C(=N\\NC(=N)N/N=C(\\C)c1ccc(Cl)cc1)c1ccc(Cl)cc1.Cl", "note": "[NCL062]", "values": [{"measurement": "Screen at 16 μg/mL", "setting": "[8]", "result": "Growth"}, {"measurement": "MIC", "setting": "Candida albicans [5]; [9]", "result": 1, "unit": "µg/mL"}, {"measurement": "MIC", "setting": "Candida albicans [5]; [10]", "result": 1, "unit": "µg/mL"}, {"measurement": "MIC", "setting": "Candida albicans [5]; Candida albicans, 1st", "result": 0.5, "unit": "µg/mL"}, {"measurement": "MIC", "setting": "Candida albicans [5]; Candida albicans, 2nd", "result": 1, "unit": "µg/mL"}, {"measurement": "MIC", "setting": "Candida parapsilosis; 1st", "result": 0.5, "unit": "µg/mL"}, {"measurement": "MIC", "setting": "Candida parapsilosis; 2nd", "result": 1, "unit": "µg/mL"}, {"measurement": "MIC at 24-48 hours", "setting": "Candida albicans [6]; Candida albicans ATCC 90028", "result": 1, "unit": "µg/mL"}, {"measurement": "MIC at 24-48 hours", "setting": "Candida albicans [6]; Candida albicans SA3", "result": 1, "unit": "µg/mL"}, {"measurement": "antifungal activity against the two isolates of Candida albicans", "setting": "Candida albicans [6]; summary in words", "result": "high antifungal activity"}, {"measurement": "MIC at 24-48 hours", "setting": "Cryptococcus neoformans [7]; Cryptococcus neoformans SA1", "result": 1, "unit": "µg/mL"}, {"measurement": "MIC at 24-48 hours", "setting": "Cryptococcus neoformans [7]; Cryptococcus neoformans SA2", "result": 1, "unit": "µg/mL"}]}]}
